The source of these data is patent US20120108532A1, “PHARMACEUTICAL COMPOSITION FOR NEUROPROTECTIVE TREATMENT IN PATIENTS WITH ICTUS COMPRISING CITICOLINE AND URIC ACID” (HOSPITAL CLINIC PROVINCIAL DE BARCELONA, priority 2009, published 2012).

Test [1] deals with mixed cultures of neurons/glia. The experiment in a line: Lactate dehydrogenase (LDH) release assay of cell death after oxygen and glucose deprivation (OGD). The test is classed as cell-based, rat. Particulars: 100 μM, added 60 min before, during and after 90 min OGD; read 3 hours 30 minutes after OGD; FIG. 1. The method, then: Mixed cultures of neurons/glia of 18-day rat fetal embryos Sprague-Dawley were prepared as described in Petegnief, V. Saura, J. De Gregorio-Rocasolano, N., and Paul, S. M. (2001) Neuroscience 104, 223-234. The cells were suspended in minimum essential medium (MEM) supplemented by 10% fetal bovine serum and 100 μg/ml gentamicin and placed on 24-well plates previously covered with poly-L-lysine (5 μg/ml) (Nunc, Roskilde, Denmark) with a density of 0.6×10^6 cells/well and cultured at 37° C. in an incubator with 95% atmospheric air/5% CO2. The in vitro medium was partially changed on days 4, 7 and 10 (DIV) with MEM supplemented with B27. The cultures were used in 11/13 DIV. 11.9 mM uric acid was prepared in 1.35 mM lithium carbonate and 5% mannitol. […]
For the lactate dehydrogenase activity assay, cell death was estimated 3 hours 30 minutes after OGD and next lactate dehydrogenase (LDH) activity was measured released in the medium according to a modification of the method of (Wroblewski and LaDue, […]). The reduction of absorbance in 0.75 NADH to 340 nm was followed by a phosphate buffer ([…], pH 7.4) in presence of 4.2 mM pyruvic acid as substrate.

The subject of a further test is focal cerebral ischemia. Particulars: adult rat; UA given 2 hours before occlusion of the middle cerebral artery or 1 hour after reperfusion; cited from earlier work.

As to `O=c1[nH]c(=O)c2[nH]c(=O)[nH]c2[nH]1` [uric acid], the “cell viability in ischemic conditions (LDH activity released in the medium)” value in test [1] is on record as “did not improve the cell viability”. Further, in the test on focal cerebral ischemia, the resulting cerebral infarction is listed as “significantly reduces the resulting cerebral infarction”.
